Data as given in PMC12216609, “Inhibitors of eIF1A-ribosome interaction unveil uORF-dependent regulation of translation initiation and antitumor and antiviral effects” (The EMBO Journal, 2025).
Several values for one entry are separate records, joined by “and”; a condition that tells them apart may be missing. Identical values can stand only once. Like-named read-outs stand apart in the source and are kept apart here.

Tests used:
[1] = biological target: T1, eIF1A (Homo sapiens, UniProt P47813); assay type: binding; conditions: for fluorescence ratio, eIF1A: background-corrected, relative to DMSO or lowest 1Ai concentration, replicate columns
T1 construct: His-bdSUMO (cleaved yes); made in house; host or cells: E. coli BL-21
T1 sequence (P47813 whole entry): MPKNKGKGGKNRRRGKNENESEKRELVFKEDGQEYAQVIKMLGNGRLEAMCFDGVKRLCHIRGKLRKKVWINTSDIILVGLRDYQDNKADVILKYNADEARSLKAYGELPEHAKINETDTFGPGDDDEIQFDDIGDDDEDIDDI

[2] = biological target: T2, RPS10 (Homo sapiens, UniProt P46783); assay type: binding; conditions: for RPS10 IC50: fluorescence binding
T2 construct: made in house; host or cells: E. coli BL-21

[3] = system: CUG/GUG vs AUG start codon luciferase reporters in HEK293T cells; test: Near-cognate AUG starting codon fidelity reporter assay (GUG, CUG vs AUG); assay type: cell-based; conditions: for average CUG and GUG / average CUG and GUG relative to DMSO / CUG Average / GUG Average: NUG experiment; for CUG Average: CUG vs AUG reporter; for GUG Average: GUG vs AUG reporter; for NUG (Final data, Fig. 1E): average CUG and GUG relative to DMSO, 20 µM overnight; for GUG vs AUG data (%): individual repeat; for GUG vs AUG (%) Average: summary average of repeats, DMSO control average […]; for CUG vs AUG (%): CUG start codon reporter relative to AUG reporter (AUG = 100); for CUG vs AUG (%) / GUG vs AUG (%): single-experiment calculation; for GUG vs AUG (%): GUG start codon reporter relative to AUG reporter (AUG = 100)
[4] = system: cap-proximal AUG GFP reporter in HEK293T cells; assay type: cell-based; conditions: GFP WB densitometry; 20 µM overnight; dmso 0.965946;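 note: ratio of upstream to downstream AUG initiation products on GFP Western blot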
[5] = system: IRF7 5'UTR firefly luciferase reporter in HEK293T cells; conditions: for Reference vs IRF7 (Final data, Fig. 1E): 1/Result, relative to DMSO; for LONG (summary - All), normalized to DMSO: Long reporter; for LONG (summary - All), normalized to DMSO / SHORT (summary - All), normalized to DMSO: individual replicates, outliers excluded, DMSO = 1; for SHORT (summary - All), normalized to DMSO: Short reporter; for Long 5'UTR reporter luciferase activity, normalized to DMSO (=1), single replicates: left data block (Long), source data of Fig 1C; for average ( long vs short ratio): summary - All;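 for all read-outs here: luciferase signal corrected by a co-transfected GFP reporter for transfection efficiency, read after overnight compound exposure, with Long and Short reporters differing in 5'UTR length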
Method: For the effect on ribosomal scanning, we used two firefly luciferase reporter genes that differ in their 5'UTR length (Fig. 1C). […] Cells were transfected with these reporters along with a GFP reporter gene used to normalize transfection efficiency. After an overnight 1Ai or DMSO (vehicle control) exposure, luciferase and GFP expression were measured, and normalized activity was determined.
For the reference vs IRF7 5'UTR luciferase reporter assay, HEK239T cells in a 12-well plate were transfected with the previously described IRF7 5'UTR or reference firefly luciferase reported genes (Sehrawat et al, [2019]) (100 ng/well) together with GFP (20 ng/well) that served as an internal control by CaCl2 transfection. After 6 h, half of the growth medium was replaced with a medium containing the different compounds, reaching a final concentration of 20 µM. Twenty-four hours after transfection, transfection efficiency was evaluated using GFP fluorescence intensity (Cytation 5, ex/em: 470/525). Cells were harvested in 50 µL Reported lysis buffer (RLB) and put on a shaker for 10 min. From each well 5 µL were taken in duplicates and tested by luminometer.

[6] = biological target: NSP1 (Severe acute respiratory syndrome coronavirus 2, UniProt P0DTD1)
[7] = eIF1A, from the titration data, read-out: IC50 (eIF1A titration block)
[8] = summary table, fluorescence binding assay, read-out: IC50 concentration (µM), WT eIF1A
[9] = summary table, fluorescence binding assay
[10] = compound at 10uM (summary head)
[11] = compound at 20uM (summary head)

SMILES: CN1CCN(S(=O)(=O)c2ccc(N3Cc4cc5c(cc4C4(CCCC4)C3)OCCO5)nc2)CC1 [1Ai-3564]
- fluorescence ratio, eIF1A ([1]; 1Ai conc. 0.25 uM): 1.044 and 1
- fluorescence ratio, eIF1A ([1]; 1Ai conc. 0.5 uM): 1.089 and 1.095
- fluorescence ratio, eIF1A ([1]; 1Ai conc. 1 uM): 1.239 and 0.9891
- fluorescence ratio, eIF1A ([1]; 1Ai conc. 2 uM): 1.143 and 0.9513
- fluorescence ratio, eIF1A ([1]; 1Ai conc. 4 uM): 1.209 and 0.9045
- fluorescence ratio, eIF1A ([1]; 1Ai conc. 8 uM): 1.156 and 0.8599
- fluorescence ratio, eIF1A ([1]; 1Ai conc. 16 uM): 1.357 and 1.021
- fluorescence ratio, eIF1A ([1]; 1Ai conc. 32 uM): 1.557 and 1.107
- fluorescence ratio, eIF1A ([1]; 1Ai conc. 64 uM): 1.6 and 1.164
- fluorescence ratio, eIF1A ([1]; 1Ai conc. 256 uM): 1.73 and 1.413
- IC50 [1, 7]: 35.2 µM
- IC50 [1, 8]: 35.3 µM
- RPS10 fluorescence ratio to control ([2]; 1Ai conc. 0.25 uM): 1
- RPS10 fluorescence ratio to control ([2]; 1Ai conc. 0.5 uM): 0.8515
- RPS10 fluorescence ratio to control ([2]; 1Ai conc. 1 uM): 0.9657
- RPS10 fluorescence ratio to control ([2]; 1Ai conc. 2 uM): 0.9853
- RPS10 fluorescence ratio to control ([2]; 1Ai conc. 4 uM): 0.8932
- RPS10 fluorescence ratio to control ([2]; 1Ai conc. 8 uM): 0.9434
- RPS10 fluorescence ratio to control ([2]; 1Ai conc. 16 uM): 0.942
- RPS10 fluorescence ratio to control ([2]; 1Ai conc. 32 uM): 1
- RPS10 fluorescence ratio to control ([2]; 1Ai conc. 64 uM): 1.142
- RPS10 fluorescence ratio to control ([2]; 1Ai conc. 256 uM): 1.206
- RPS10 IC50 [2]: No binding
- IC50 concentration (µM), RPS10 [2, 9]: No binding
- average CUG and GUG [3]: 6.96
- average CUG and GUG relative to DMSO [3]: 1.543
- CUG Average [3]: 10.8773
- GUG Average [3]: 3.042
- NUG (Final data, Fig. 1E) [3]: 1.543
- GUG vs AUG data (%) ([3]; compound at 20uM): 2.43% and 3.12% and 4.52% and 2.10%
- GUG vs AUG (%) Average ([3]; compound at 20uM): 3.04%
- US/DS ratio, average [4]: 0.4649
- Reference vs IRF7 (Final data, Fig. 1E) ([5]; 20 µM): 1.762
- LONG (summary - All), normalized to DMSO ([5]; 20 µM): 0.26 and 0.60 and 0.49 and 0.43 and 0.25
- SHORT (summary - All), normalized to DMSO ([5]; 20 µM): 0.54 and 0.80 and 0.85 and 0.72 and 0.67
- Long 5'UTR reporter luciferase activity, normalized to DMSO (=1), single replicates ([5]; compound at 20 µM): 0.261 and 0.6001 and 0.4877 and 0.4313 and 0.2492
- average ( long vs short ratio) ([5]; 20 µM): 0.568
- GFP reporter ratio nsp1/gfp, avg [6]: 0.5007
- GFP reporter ratio nsp1/gfp, rep 1 [6]: 0.5007
- gfp signal, mean of duplicate wells [6]: 362.5
- nsp1 signal, mean of duplicate wells [6]: 181.5
- ratio (nsp1/gfp) [6]: 0.501

SMILES: COc1ccc2oc(C(=O)OC(C)C(=O)Nc3sccc3C(N)=O)c(C)c2c1 (stereo not shown) [1Ai-3044]
- fluorescence ratio, eIF1A ([1]; 1Ai conc. 0.25 uM): 0.7896 and 0.9625
- fluorescence ratio, eIF1A ([1]; 1Ai conc. 0.5 uM): 0.8401 and 0.9684
- fluorescence ratio, eIF1A ([1]; 1Ai conc. 1 uM): 0.783 and 0.965
- fluorescence ratio, eIF1A ([1]; 1Ai conc. 2 uM): 1.321 and 0.9132
- fluorescence ratio, eIF1A ([1]; 1Ai conc. 4 uM): 1.411 and 0.9093
- fluorescence ratio, eIF1A ([1]; 1Ai conc. 8 uM): 1.361 and 0.8279
- fluorescence ratio, eIF1A ([1]; 1Ai conc. 16 uM): 1.171 and 0.7406
- fluorescence ratio, eIF1A ([1]; 1Ai conc. 32 uM): 1.256 and 0.7959
- fluorescence ratio, eIF1A ([1]; 1Ai conc. 64 uM): 1.351 and 0.8195
- fluorescence ratio, eIF1A ([1]; 1Ai conc. 256 uM): 1.419 and 0.8072
- WT eIF1A IC50 ([1]; fluorescence binding): No binding
- IC50 concentration (µM), WT eIF1A [1, 9]: No binding
- RPS10 fluorescence ratio to control ([2]; 1Ai conc. 0.25 uM): 1
- RPS10 fluorescence ratio to control ([2]; 1Ai conc. 0.5 uM): 1.015
- RPS10 fluorescence ratio to control ([2]; 1Ai conc. 2 uM): 1.108
- RPS10 fluorescence ratio to control ([2]; 1Ai conc. 4 uM): 1.108
- RPS10 fluorescence ratio to control ([2]; 1Ai conc. 8 uM): 1.07
- RPS10 fluorescence ratio to control ([2]; 1Ai conc. 16 uM): 0.983
- RPS10 fluorescence ratio to control ([2]; 1Ai conc. 32 uM): 0.9928
- RPS10 fluorescence ratio to control ([2]; 1Ai conc. 64 uM): 1.135
- RPS10 fluorescence ratio to control ([2]; 1Ai conc. 256 uM): 1.327
- RPS10 IC50 [2]: No binding
- IC50 concentration (µM), RPS10 [2, 9]: No binding
- CUG vs AUG (%) [3, 10]: 8.177%
- GUG vs AUG (%) [3, 10]: 1.952%
- average CUG and GUG [3]: 5.9112
- average CUG and GUG relative to DMSO [3]: 1.3106
- CUG Average [3]: 9.682
- GUG Average [3]: 2.141
- NUG (Final data, Fig. 1E) [3]: 1.311
- GUG vs AUG data (%) ([3]; compound at 10uM): 2.24% and 1.90% and 2.01% and 2.41%
- GUG vs AUG (%) Average ([3]; compound at 10uM): 2.14%
- US/DS ratio, average [4]: 0.9145
- Reference vs IRF7 (Final data, Fig. 1E) ([5]; 20 µM): 0.527
- LONG (summary - All), normalized to DMSO ([5]; 10 µM): 0.55 and 1.64 and 1.20 and 0.82 and 1.11
- SHORT (summary - All), normalized to DMSO ([5]; 10 µM): 0.72 and 0.67 and 0.70 and 0.63
- Long 5'UTR reporter luciferase activity, normalized to DMSO (=1), single replicates ([5]; compound at 10 µM): 0.5511 and 1.639 and 1.204 and 0.8163 and 1.106
- average ( long vs short ratio) ([5]; 10 µM): 1.568
- GFP reporter ratio nsp1/gfp, avg [6]: 0.4548
- GFP reporter ratio nsp1/gfp, rep 1 [6]: 0.4548
- gfp signal, mean of duplicate wells [6]: 2086.5
- nsp1 signal, mean of duplicate wells [6]: 949
- ratio (nsp1/gfp) [6]: 0.455

SMILES: Cc1ccc(C(=O)c2cc(O)c(O)c([N+](=O)[O-])c2)cc1 [1Ai-5576]
- fluorescence ratio, eIF1A ([1]; 1Ai conc. 0.25 uM): 0.7537 and 0.6505
- fluorescence ratio, eIF1A ([1]; 1Ai conc. 0.5 uM): 0.6672 and 0.6249
- fluorescence ratio, eIF1A ([1]; 1Ai conc. 1 uM): 0.6232 and 0.5058
- fluorescence ratio, eIF1A ([1]; 1Ai conc. 2 uM): 0.6427 and 0.4189
- fluorescence ratio, eIF1A ([1]; 1Ai conc. 4 uM): 0.6101 and 0.3891
- fluorescence ratio, eIF1A ([1]; 1Ai conc. 8 uM): 0.5237 and 0.3506
- fluorescence ratio, eIF1A ([1]; 1Ai conc. 16 uM): 0.4763 and 0.3127
- fluorescence ratio, eIF1A ([1]; 1Ai conc. 32 uM): 0.3344 and 0.3594
- fluorescence ratio, eIF1A ([1]; 1Ai conc. 64 uM): 0.3785 and 0.2952
- fluorescence ratio, eIF1A ([1]; 1Ai conc. 256 uM): 0.2822 and 0.2602
- IC50 [1, 7]: 0.926 µM
- IC50 [1, 8]: 0.9 µM
- RPS10 fluorescence ratio to control ([2]; 1Ai conc. 0.25 uM): 1.2176
- RPS10 fluorescence ratio to control ([2]; 1Ai conc. 0.5 uM): 1.045
- RPS10 fluorescence ratio to control ([2]; 1Ai conc. 1 uM): 1.349
- RPS10 fluorescence ratio to control ([2]; 1Ai conc. 2 uM): 1.319
- RPS10 fluorescence ratio to control ([2]; 1Ai conc. 4 uM): 1.348
- RPS10 fluorescence ratio to control ([2]; 1Ai conc. 8 uM): 0.4488
- RPS10 fluorescence ratio to control ([2]; 1Ai conc. 16 uM): 0.3698
- RPS10 fluorescence ratio to control ([2]; 1Ai conc. 32 uM): 0.4065
- RPS10 fluorescence ratio to control ([2]; 1Ai conc. 64 uM): 0.1627
- RPS10 fluorescence ratio to control ([2]; 1Ai conc. 256 uM): 0.3279
- IC50 ([2]; read-out: IC50 (line under RPS10 binding data)): 7.4 µM
- IC50 ([2]; read-out: RPS10 IC50): 7.4 µM
- IC50 ([2]; summary table, fluorescence binding assay, read-out: IC50 concentration (µM), RPS10): 7.4 µM
- CUG vs AUG (%) [3, 11]: 5.985%
- GUG vs AUG (%) [3, 11]: 2.005%
- average CUG and GUG [3]: 6.465
- average CUG and GUG relative to DMSO [3]: 1.433
- CUG Average [3]: 9.471
- GUG Average [3]: 3.46
- NUG (Final data, Fig. 1E) [3]: 1.433
- GUG vs AUG data (%) ([3]; compound at 20uM): 2.91% and 4.78% and 2.69%
- GUG vs AUG (%) Average ([3]; compound at 20uM): 3.46%
- US/DS ratio, average [4]: 0.8188
- Reference vs IRF7 (Final data, Fig. 1E) ([5]; 20 µM): 1.896
- LONG (summary - All), normalized to DMSO ([5]; 20 µM): 0.11 and 0.20 and 0.17
- SHORT (summary - All), normalized to DMSO ([5]; 20 µM): 0.23 and 0.53 and 0.25 and 0.22
- Long 5'UTR reporter luciferase activity, normalized to DMSO (=1), single replicates ([5]; compound at 20 µM): 0.1126 and 0.2 and 0.1668 and 0.166
- average ( long vs short ratio) ([5]; 20 µM): 0.527
- GFP reporter ratio nsp1/gfp, avg [6]: 0.4237
- GFP reporter ratio nsp1/gfp, rep 1 [6]: 0.4237
- gfp signal, mean of duplicate wells [6]: 2857
- nsp1 signal, mean of duplicate wells [6]: 1210.5
- ratio (nsp1/gfp) [6]: 0.424
